Measured values as given in the METLIN SMRT retention time set (Domingo-Almenara et al. 2019).

Experiment: gradient 5% acetonitrile 3 min, to 50% in 2 min, to 85% in 15 min, held 3 min, 100 µL/min
Details: column: Zorbax Extend-C18 2.1 x 50 mm; eluents: water / acetonitrile, 0.1% formic acid
Method in brief: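 Pure standards were run in mixtures of ~100 molecules by HPLC coupled to a quadrupole time-of-flight mass spectrometer. The column was a Zorbax Extend-C18 (2.1 × 50 mm, 1.8 μm) at 100 μL/min, with water and acetonitrile each containing 0.1% formic acid, in positive and negative ionization mode. Dead and dwell volumes were 40 μL and 900 μL. Retention time was taken from computationally picked adduct peaks, each manually inspected, with data collected over 3 months.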

| SMILES | RP-LC retention time [s] |
| --- | --- |
| COc1ccc(NC(=O)Cc2c(C)nn(-c3nc(C)cs3)c2C)cc1 | 873 |
| O=C(CSc1cc(N2CCN(c3ccccc3F)CC2)ncn1)NC1CCCCC1 | 1050 |
| O=C(NC1CCCCC1)c1ccn[nH]1 | 642 |
| Cc1cnc(CCNS(=O)(=O)c2ccc(C#N)cc2)n1C1CC1 | 960 |
| O=c1ccc(S(=O)(=O)N2CCOCC2)cn1Cc1cc(F)cc(F)c1 | 791 |
| CCc1ccc(CNC(=O)Cn2c(C)nc3onc(CC)c3c2=O)cc1 | 885 |
| CCCc1ccc(S(=O)(=O)N2CCC(c3noc(-c4cccc(OC)c4)n3)CC2)cc1 | 1280 |
| CCCN(C(=O)Nc1ccccc1C(=O)OCC)c1nc(-c2ccc(C3CCCCC3)cc2)cs1 | 630 |
| COc1ccc(OC)c(S(=O)(=O)N2CCOc3ccc(NC(=O)C4CC4)cc3C2)c1 | 823 |
| CCN(C(=O)c1ccccc1C)c1nc(-c2ccccc2)cs1 | 1260 |
| CN(C)c1ccc(C(=O)N2CCCC(COc3ccc(C(=O)NC4CC4)cc3)C2)cc1 (centres undefined) | 780 |
| Cc1ccc(C(CNC(=O)c2cc(=O)c3ccccc3o2)N(C)C)cc1 (centres undefined) | 626 |
| CC1CCCCN1CCN(CCC(=O)N1CCNCC1)C(=O)c1ccc(C(F)(F)F)cc1 (centres undefined) | 569 |
| CCOC(=O)c1c(S(=O)(=O)N2CCC(C(=O)Nc3ccc(Cl)cc3)CC2)c(C)n(C)c1C | 913 |
| Cc1ccc(C)c(C(=O)N2CCCC2c2nc(-c3cccc(Cl)c3)no2)c1 (centres undefined) | 1190 |
| CCOc1ccc(-c2ccc(=O)n(CCCC(=O)Nc3ccccc3SC)n2)cc1 | 853 |
| CCC(C)(C)NC(=O)Cn1nc(C)c2nn(-c3ccccc3)c(C)c2c1=O | 860 |
| COc1ccc2[nH]cc(CCNC(=O)CCc3c(C)nc4c(c3C)c(=O)n(C)c(=O)n4C)c2c1 | 788 |
| CCc1ccc(CNC(=O)Cn2c(C)nc3onc(C)c3c2=O)cc1 | 821 |
| COc1ccc(C2Cn3cnc(C(=O)N4CCC(C(=O)NCC5CC5)CC4)c3CO2)cc1 (centres undefined) | 649 |
| O=C(Nc1ccc(N2CCOCC2)cc1)C1CCCN(c2nnc3ccccn23)C1 (centres undefined) | 600 |
| Cc1ccc(NC(=O)N2CCCC(C)(C(=O)NCc3ccc(F)cc3)C2)c(Cl)c1 (centres undefined) | 1010 |
| Cc1nn(CC(=O)N2CCC(Cc3ccccc3)CC2)c(=O)c2noc(C)c12 | 832 |

| SMILES | RP-LC retention time [s] |
| --- | --- |
| CCc1nc(N)n(CC(=O)NCc2ccccc2)c(=O)c1C | 623 |
| CN(C(=O)C1CCCN(c2ncnc3c2nc2n3CCCCC2)C1)c1ccccc1Cl (centres undefined) | 846 |
| O=C(c1ccc2nsnc2c1)N1CCN(c2ccc(F)cc2)CC1 | 811 |
| Fc1cccc(-c2noc(Cc3nc(-c4ccc(Cl)cc4)cs3)n2)c1 | 1330 |
| Cn1c(=O)c(-c2ccc(C(=O)NCC3CCCO3)cc2)nc2ccccc21 (centres undefined) | 724 |
| COc1ccc(N(C(=O)Nc2ccccc2OC)C2=NCCC2)cc1Cl | 1060 |
| O=C(CCCNC(=O)c1cc(-c2cccs2)[nH]n1)Nc1cccc2cccnc12 | 697 |
| CCN1C(=O)COc2ccc(-c3csc(NC(=O)c4cc(OC)cc(OC)c4)n3)cc21 | 1050 |
| CCn1c(C(=O)NCCCN2CCCC(C)C2)c(N2CCCC2=O)c2cc(F)ccc21 (centres undefined) | 660 |
| CN1C(=O)CCC2(CNC(=O)c3ccnn3C)CCC=C12 (centres undefined) | 639 |
| CCOc1ccc(-c2nnc3ccc(SC(C(C)=O)C(=O)N(C)C)nn23)cc1 (centres undefined) | 665 |
| Cc1cc(N2CCC(C)CC2)n2nc(-c3ccc(Cl)cc3)nc2n1 | 1170 |
| O=C(COc1ccccc1)N1CCN(C(=O)c2nnn3c2COC(c2ccc(Cl)cc2)C3)CC1 (centres undefined) | 922 |
| COc1ccc(C(=O)N2CCCn3nc(-c4ccc(Cl)cc4)cc3C2)cn1 | 881 |
| C=CCNc1c(C(=O)OC)c(=O)[nH]c2c(Cl)cccc12 | 700 |
| Cc1ccc(CN2CCC(CNC(=O)c3noc(C)c3Cn3nc(C)cc3C)C2)cc1 (centres undefined) | 659 |
| CC1=C(c2ccc(F)cc2)S(=O)(=O)N=C1N1CCCN(C(=O)c2cccnc2)CC1 | 713 |
| COc1ccc(S(=O)(=O)Nc2c(C)n(C)n(-c3ccccc3)c2=O)cc1[N+](=O)[O-] | 699 |
| Nc1cc(C2CCN(C(=O)Nc3cccc(Cl)c3)CC2)no1 | 727 |
| COc1ccc(NC(=O)C(=O)c2cccn2C)cc1OC | 784 |
| CC(C)c1ccc(CNC(=O)C2CCCN(c3cc(=O)n(C)c(=O)n3C)C2)cc1 (centres undefined) | 781 |
| CCOc1cccc(CNC(=O)C2CCCN(c3ncnc4c3oc3ccccc34)C2)c1 (centres undefined) | 782 |
| Cc1ccnc(OCC(=O)Nc2cc(C)on2)n1 | 612 |

| SMILES | RP-LC retention time [s] |
| --- | --- |
| COCCNc1c(-c2ccc(F)cc2)nc2sc(C(=O)NCc3ccccn3)c(C)n12 | 661 |
| COc1ncc(C(=O)Nc2cccc(Cl)c2)c(C)n1 | 812 |
| O=C(Cn1nc2n(c1=O)CCCC2)Nc1ccc(Br)cc1 | 703 |
| COc1cccc(NC(=O)N2CCC3(CC2)NC(=O)c2ccc(F)cc2N3C)c1 | 723 |
| Cc1ccc(C)c(NC(=O)Cn2c(C)nc3onc(C)c3c2=O)c1 | 800 |
| CCCCNC(=O)CN1C(=O)C2CCCCN2c2ccc(C(=O)N3CCCC3)cc21 (centres undefined) | 743 |
| CC(C)NC(=O)c1ccccc1OCC1CCCNC1 (centres undefined) | 583 |
| Cn1c(=O)c2c(C(=O)N3CCN(c4cccc(C(F)(F)F)c4)CC3)cc(=O)n(C)c2n(C)c1=O | 943 |
| CC(NC(=O)CC1Sc2ccc(C(F)(F)F)cc2NC1=O)c1ccccc1 (centres undefined) | 848 |
| Cc1ccc(C(=O)NCCN2CCCC2)cc1NC(=O)C1=CSCCO1 | 592 |
| CC(C)CC(=O)Nc1ccc(-n2cnc(C(=O)N3CCN(C(C)C)CC3)c2)nc1 | 581 |
| CC(C)n1cnc2cc(CNC(=O)c3ccc(F)cc3F)ccc21 | 623 |
| Cc1nn(-c2cc(N3CCCCC3)ncn2)c(C)c1CCC(=O)NCc1ccccn1 | 646 |
| CCN1CCN(c2cc(C(=O)O)c3cc(NS(=O)(=O)c4ccc(C(C)C)cc4)ccc3n2)CC1 | 724 |
| Cn1cc(C(=O)N2CCCC2Cc2noc(C3CCCC3)n2)cn1 (centres undefined) | 750 |
| Cc1nc2cccnc2n1CCN1CCN(C(=O)Nc2ccc(F)c(Cl)c2)CC1 | 618 |
| COC(=O)c1ccc(NC(=O)Cn2cccc(-c3nc(-c4ccccc4)no3)c2=O)cc1 | 829 |
| COc1ccc(N2C(=O)C3N=NN(c4cccc(OC)c4)C3C2=O)cc1 (centres undefined) | 905 |
| CCc1ccc(NC(=O)C2CCCN(c3ccc(=O)n(-c4ccc(C)c(Cl)c4)n3)C2)cc1 (centres undefined) | 586 |
| O=C(NC1CCCC1)C1CCCN(c2nc3ccsc3c(=O)n2Cc2ccc(F)cc2)C1 (centres undefined) | 913 |
| CCCOc1ccc(-c2nc(-c3ccc(N)cc3)cs2)cc1 | 1120 |
| COC(=O)c1cnc(N2CCN(Cc3ccccc3)CC2)c2ccccc12 | 682 |
| Cc1cccc(-c2noc(C3CCCN3C(=O)NCCc3ccccc3)n2)c1 (centres undefined) | 593 |

| SMILES | RP-LC retention time [s] |
| --- | --- |
| CCc1cc(=O)n(CC(=O)N2CCN(c3ccccc3F)CC2)c(N2CCOCC2)n1 | 761 |
| CCN1CCN(c2ccc(NC(=O)c3ccc(F)cc3Cl)cn2)C1=O | 742 |
| COc1cccc(-c2nnc(SCc3cc(=O)n4c(C)csc4n3)o2)c1 | 840 |
| Cc1[nH]c(C(=O)N2CCC(CC(=O)N3CCN(c4ccccn4)CC3)CC2)c(C)c1C(=O)OC(C)C | 628 |
| O=C(Cc1ccc(Cl)cc1)N1CCCN(C2CCN(CC3CC3)C2=O)CC1 (centres undefined) | 581 |
| Cc1ccc2cc(CCC(=O)O)c(=O)[nH]c2c1 | 758 |
| Cn1cnc(S(=O)(=O)N2CCN(Cc3cccc(F)c3)C3(CCOCC3)C2)c1 | 598 |
| CCCC(=O)Nc1nc(-c2ccc3c(c2)NC(=O)CO3)c(C)s1 | 752 |
| Cc1noc2nc(CCC(=O)NCCCN3CCc4ccccc4C3)nc(N3CCCCCC3)c12 | 695 |
| O=C(NCc1ccccc1)c1nnc(-c2ccc(S(=O)(=O)N3CCCCC3)cc2)o1 | 953 |
| CC(=O)Nc1ccc(NC(=O)c2cccc(N3C(=O)NC4CC3(C)Oc3ccccc34)c2)cc1 (centres undefined) | 702 |
| CC1Cc2ccccc2N1C(=O)c1ccc(=O)n(CCC(=O)N2CCN(c3ccccn3)CC2)n1 (centres undefined) | 629 |
| CCOc1cccc(CNC(=O)c2cn3cc(Cl)ccc3n2)c1 | 886 |
| Cn1ccc(CN2CCN(Cc3cccc(F)c3)CC2)cc1=O | 558 |
| O=C(Nc1cccc(C(F)(F)F)c1)NC1CCN(c2cc(N3CCCC3)cnn2)C1 (centres undefined) | 617 |
| COc1ccc(CNC(=O)C2CCN(S(C)(=O)=O)c3cc(Cl)ccc3O2)cc1 (centres undefined) | 877 |
| CNC(=O)N1CCCC(c2cccc(C(=O)NC(C)c3ccc(F)cc3)c2)C1 (centres undefined) | 792 |
| CC(=O)Nc1ccc(OCC(O)CN2CCC(Cc3ccccc3)CC2)cc1 (centres undefined) | 577 |
| COc1ccc(-c2noc(-c3nn(-c4ccc(OC)cc4)ccc3=O)n2)cc1 | 827 |
| CCCOc1ccc(-c2csc(NC(=O)CN3C(=O)CCC3=O)n2)cc1 | 816 |
